Measurements from patent US12544395B2, “Combination compositions comprising a beta-lactamase inhibitor and uses thereof” (priority 2018, dated 2026).

Key:
Format in all cases: cell-based
[1] = test system: K. pneumoniae BAA 1705; test: Broth microdilution MIC (strain KPC-producing)
[2] = test system: E. coli SI-M004; test: Broth microdilution MIC (strain enzymes: SHV-2, GES-12)
[3] = test system: E. coli 2150; test: Broth microdilution MIC (strain enzymes: SHV-3, TEM-1)
[4] = test system: K. pneumoniae ESBL 8 #2; test: Broth microdilution MIC (strain enzymes: SHV-12, TEM-1)
[5] = test system: K. pneumoniae KP 3; test: Broth microdilution MIC (strain enzymes: SHV-1, TEM-1)
[6] = test system: K. pneumoniae KPN 508; test: Broth microdilution MIC (strain enzymes: SHV-7, TEM-1)

SMILES: CCC(=O)N[C@H]1Cc2cccc(C(=O)O)c2OB1O [Compound 2, (R)-2-hydroxy-3-propionamido-3,4-dihydro-2H-benzo[e][1,2]oxaborinine-8-carboxylic acid]
- MIC of cefixime (CFM) ([1]; with inhibitor at 2 μg/mL): 0.5 µg/mL
- MIC of ceftibuten (CTB) ([1]; with inhibitor at 2 μg/mL): 0.5 µg/mL
- MIC of cefalexin (LEX) ([1]; with inhibitor at 4 μg/mL): 1 µg/mL
- MIC of cefdinir (CDR) ([1]; with inhibitor at 4 μg/mL): 1 µg/mL
- MIC of cefixime (CFM) ([1]; with inhibitor at 4 μg/mL): 0.25 µg/mL
- MIC of ceftibuten (CTB) ([1]; with inhibitor at 4 μg/mL): 0.25 µg/mL
- MIC of cefalexin (LEX) ([2]; with inhibitor at 1 μg/mL): 0.5 µg/mL
- MIC of cefdinir (CDR) ([2]; with inhibitor at 1 μg/mL): 0.5 µg/mL
- MIC of cefixime (CFM) ([2]; with inhibitor at 1 μg/mL): 4 µg/mL
- MIC of ceftibuten (CTB) ([2]; with inhibitor at 1 μg/mL): 0.25 µg/mL
- MIC of cefalexin (LEX) ([2]; with inhibitor at 2 μg/mL): 0.5 µg/mL
- MIC of cefdinir (CDR) ([2]; with inhibitor at 2 μg/mL): 0.5 µg/mL
- MIC of cefixime (CFM) ([2]; with inhibitor at 2 μg/mL): 4 µg/mL
- MIC of ceftibuten (CTB) ([2]; with inhibitor at 2 μg/mL): 0.125 µg/mL
- MIC of cefalexin (LEX) ([2]; with inhibitor at 4 μg/mL): 0.5 µg/mL
- MIC of cefdinir (CDR) ([2]; with inhibitor at 4 μg/mL): 0.5 µg/mL
- MIC of cefixime (CFM) ([2]; with inhibitor at 4 μg/mL): 1 µg/mL
- MIC of ceftibuten (CTB) ([2]; with inhibitor at 4 μg/mL): 0.125 µg/mL
- MIC of cefalexin (LEX) ([3]; with inhibitor at 1 μg/mL): 1 µg/mL
- MIC of cefdinir (CDR) ([3]; with inhibitor at 1 μg/mL): 1 µg/mL
- MIC of cefixime (CFM) ([3]; with inhibitor at 1 μg/mL): 0.5 µg/mL
- MIC of ceftibuten (CTB) ([3]; with inhibitor at 1 μg/mL): 0.125 µg/mL
- MIC of cefalexin (LEX) ([3]; with inhibitor at 2 μg/mL): 0.5 µg/mL
- MIC of cefdinir (CDR) ([3]; with inhibitor at 2 μg/mL): 0.5 µg/mL
- MIC of cefixime (CFM) ([3]; with inhibitor at 2 μg/mL): 0.5 µg/mL
- MIC of ceftibuten (CTB) ([3]; with inhibitor at 2 μg/mL): 0.125 µg/mL
- MIC of cefalexin (LEX) ([3]; with inhibitor at 4 μg/mL): 0.5 µg/mL
- MIC of cefdinir (CDR) ([3]; with inhibitor at 4 μg/mL): 0.5 µg/mL
- MIC of cefixime (CFM) ([3]; with inhibitor at 4 μg/mL): 0.25 µg/mL
- MIC of ceftibuten (CTB) ([3]; with inhibitor at 4 μg/mL): 0.06 µg/mL
- MIC of cefalexin (LEX) ([4]; with inhibitor at 1 μg/mL): 0.5 µg/mL
- MIC of cefdinir (CDR) ([4]; with inhibitor at 1 μg/mL): 0.5 µg/mL
- MIC of cefixime (CFM) ([4]; with inhibitor at 1 μg/mL): 2 µg/mL
- MIC of ceftibuten (CTB) ([4]; with inhibitor at 1 μg/mL): 0.125 µg/mL
- MIC of cefalexin (LEX) ([4]; with inhibitor at 2 μg/mL): 0.25 µg/mL
- MIC of cefdinir (CDR) ([4]; with inhibitor at 2 μg/mL): 0.25 µg/mL
- MIC of cefixime (CFM) ([4]; with inhibitor at 2 μg/mL): 1 µg/mL
- MIC of ceftibuten (CTB) ([4]; with inhibitor at 2 μg/mL): 0.125 µg/mL
- MIC of cefalexin (LEX) ([4]; with inhibitor at 4 μg/mL): 0.25 µg/mL
- MIC of cefdinir (CDR) ([4]; with inhibitor at 4 μg/mL): 0.25 µg/mL
- MIC of cefixime (CFM) ([4]; with inhibitor at 4 μg/mL): 0.5 µg/mL
- MIC of ceftibuten (CTB) ([4]; with inhibitor at 4 μg/mL): 0.06 µg/mL
- MIC of cefalexin (LEX) ([5]; with inhibitor at 1 μg/mL): 0.5 µg/mL
- MIC of cefdinir (CDR) ([5]; with inhibitor at 1 μg/mL): 0.5 µg/mL
- MIC of cefixime (CFM) ([5]; with inhibitor at 1 μg/mL): 4 µg/mL
- MIC of ceftibuten (CTB) ([5]; with inhibitor at 1 μg/mL): 0.25 µg/mL
- MIC of cefalexin (LEX) ([5]; with inhibitor at 2 μg/mL): 0.25 µg/mL
- MIC of cefdinir (CDR) ([5]; with inhibitor at 2 μg/mL): 0.25 µg/mL
- MIC of cefixime (CFM) ([5]; with inhibitor at 2 μg/mL): 4 µg/mL
- MIC of ceftibuten (CTB) ([5]; with inhibitor at 2 μg/mL): 0.25 µg/mL
- MIC of cefalexin (LEX) ([5]; with inhibitor at 4 μg/mL): 0.5 µg/mL
- MIC of cefdinir (CDR) ([5]; with inhibitor at 4 μg/mL): 0.5 µg/mL
- MIC of cefixime (CFM) ([5]; with inhibitor at 4 μg/mL): 2 µg/mL
- MIC of ceftibuten (CTB) ([5]; with inhibitor at 4 μg/mL): 0.125 µg/mL
- MIC of cefalexin (LEX) ([6]; with inhibitor at 1 μg/mL): 0.5 µg/mL
- MIC of cefdinir (CDR) ([6]; with inhibitor at 1 μg/mL): 0.5 µg/mL
- MIC of cefixime (CFM) ([6]; with inhibitor at 1 μg/mL): 4 µg/mL
- MIC of ceftibuten (CTB) ([6]; with inhibitor at 1 μg/mL): 0.125 µg/mL
- MIC of cefalexin (LEX) ([6]; with inhibitor at 2 μg/mL): 0.25 µg/mL
- MIC of cefdinir (CDR) ([6]; with inhibitor at 2 μg/mL): 0.25 µg/mL
- MIC of cefixime (CFM) ([6]; with inhibitor at 2 μg/mL): 1 µg/mL
- MIC of ceftibuten (CTB) ([6]; with inhibitor at 2 μg/mL): 0.125 µg/mL
- MIC of cefalexin (LEX) ([6]; with inhibitor at 4 μg/mL): 0.5 µg/mL
- MIC of cefdinir (CDR) ([6]; with inhibitor at 4 μg/mL): 0.5 µg/mL
- MIC of cefixime (CFM) ([6]; with inhibitor at 4 μg/mL): 0.5 µg/mL
- MIC of ceftibuten (CTB) ([6]; with inhibitor at 4 μg/mL): 0.06 µg/mL
